Experiments:
[1] = test system: human peripheral blood mononuclear cells (PBMCs); assay: PBMC stimulation: DOTAP co-transfection of immunostimulatory non-coding RNA (RNAdjuvant) with oligonucleotide, cytokines by CBA; assay type: cell-based; conditions: DOTAP co-transfection with RNAdjuvant 1 μg/ml, oligonucleotide 0.25 μg/ml (25% weight), supernatant 24 hours, compared to immunostimulatory non-coding RNA only (FIG. 1A)
Experimental: Human peripheral blood mononuclear cells (PBMCs) were isolated from heparinized blood of healthy volunteers by standard Ficoll-Hypaque density gradient centrifugation (Ficoll 1.078 g/ml). PBMCs were re-suspended in RPMI 1640 supplemented with 10% heat-inactivated FCS. After counting, cells are re-suspended at 50 million cells per ml in fetal calf serum, 10% DMSO, and frozen. Before usage, the cells are thawed.
For transfection experiments, 2×10^5 human PBMCs per well were seeded into each well of a 96-well plate in X-Vivo 15 medium (Lonza). For preparation of DOTAP complexes containing both immunostimulatory non-coding RNA and a 2′-O-methylated oligonucleotide (SEQ ID NO: 85), the oligonucleotide was first added to immunostimulatory non-coding RNA at a weight percentage of 25%. For preparation of DOTAP complexes containing both PpLuc mRNA and a 2′-O-methylated oligonucleotide, the oligonucleotide was first added to PpLuc mRNA at a weight percentage of 25%. The molar ratio of PpLuc mRNA to oligonucleotide was thus […] (MW (Oligonucleotide)=2907 g/mol, MW (PpLuc mRNA)=652377 g/mol). DOTAP complexes containing either immunostimulatory non-coding RNA or PpLuc mRNA without or with oligonucleotide were formed at a ratio of 3 μl of DOTAP per 1 μg of RNAdjuvant or 1 μg of mRNA. […] To quantify background stimulation, PBMC were incubated either with DOTAP alone (“vehicle”) or medium only. […]
In supernatants collected from PBMC stimulated without or with 2-O-methylated oligonucleotide, the concentrations of IFN-α, IFN-γ, TNF, were measured by Cytometric Bead Array (CBA) according to the manufacturer's instructions (BD Biosciences) using the following kits: Human Soluble Protein Master Buffer Kit (catalog no. 558264), Assay Diluent (catalog no. 560104), Human IFN-α Flex Set (catalog no. 560379), Human IFN-γ Flex Set (catalog no. 558269), Human TNF Flex Set (catalog no. 560112); all kits from BD Biosciences. The data was analyzed using the FCAP Array v3.0 software (BD Biosciences).

human PBMCs = assay: PBMC co-transfection of PpLuc mRNA and antagonists (Table 6), luciferase activity in cell lysate; assay type: cell-based; conditions: 24 hours post transfection, DOTAP, antagonist 20% weight, compared to PpLuc mRNA without admixture (FIG. 5B)
Experimental: The preparation of human PBMCs was performed according to example 2.1. For transfection experiments 2×10^5 human PBMCs per well were seeded into each well of a 96-well plate in X-Vivo 15 medium (Lonza). For preparation of DOTAP (vehicle) complexes containing both the antagonist (either 2-O-methylated oligonucleotide variants, RNA oligonucleotides, DNA oligonucleotides or small molecules) as well as PpLuc mRNA (SEQ ID NO: 82, same RNA design as shown in table 2), the antagonist was first added to PpLuc mRNA at a weight percentage of 20% (1:5 mRNA: oligo/small molecule). The molar ratio of PpLuc mRNA to antagonist was thus 1:45 (MW (Oligonucleotide)=2907 g/mol, MW (PpLuc mRNA)=652377 g/mol). DOTAP complexes containing PpLuc mRNA and antagonist were formed at a ratio of 5 μl of DOTAP per 1 μg of mRNA and 100 ng were transfected. […] To quantify background stimulation, PBMC were incubated either with DOTAP alone (“vehicle”) or RPMI (“medium”) only. […] Expression analysis was performed by measuring the luciferase activity, which is measured as relative light units (RLU) in a BioTek SynergyHT plate reader. PpLuc activity is measured at 5 seconds measuring time using 50 μl of lysate and 200 μl of luciferin buffer (75 μM luciferin, 25 mM Glycylglycin, pH 7.8 (NaOH), 15 mM MgSO4, 2 mM ATP).

For “5′-GAG CGmG CCA-3′ (GAGCNGCCA; 2'-O-methyl guanosine at position 5; 9mer oligonucleotide; modified_base (5)..(5) n can be any nucleotide, wherein the nucleotide is 2-O-methylated, preferably a 2-O-methylated guanosine) [Gm18, 9-mer 2′-O-methylated RNA oligonucleotide; position 5 is 2′-O-methylated guanosine (Gm); antagonist of TLR7 and 8]”, the “secretion of cytokine INF-a” value [1] was “reduced secretion”, the “secretion of cytokine INF-y” value [1] was “reduced secretion” and the “secretion of cytokine TNF” value [1] was “reduced secretion”. The “expression of PpLuc in PBMCs” value (human PBMCs) was “increases the expression”.

Source: patent US20220296628A1, “RNA COMBINATIONS AND COMPOSITIONS WITH DECREASED IMMUNOSTIMULATORY PROPERTIES” (CureVac AG, priority 2019, published 2022)
